Data as given in ChEMBL document CHEMBL1201862, “PubChem BioAssay data set” (2004).
Several values for one entry are separate records, joined by “and”; a condition that tells them apart may be missing. Equal values may be shown once.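 Each compound was tested at five concentrations against cells in 96-well plates for 48 hours. GI50 = concentration required for 50% inhibition of growth.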 Activity calls are given as the source filed them. No stated cut-off is given here; in the data, active = GI50 up to about 1.1 µM and inactive = higher.

Tests used:
Experiment in all cases: NCI tumour cell line growth inhibition, 48 h
[1] = test system: K562
[2] = test system: HCT-15
[3] = test system: OVCAR-4
[4] = test system: SF-295
[5] = test system: 786-0
[6] = test system: KM12
[7] = test system: SK-MEL-5
[8] = test system: DU-145
[9] = test system: SK-MEL-28
[10] = test system: A549
[11] = test system: MOLT-4
[12] = test system: UACC-62
[13] = test system: RXF 393
[14] = test system: SF-539
[15] = test system: HOP-62
[16] = test system: SK-MEL-2
[17] = test system: NCI-H522
[18] = test system: BT-549
[19] = test system: Hs-578T
[20] = test system: NCI-H460
[21] = test system: HOP-92
[22] = test system: MDA-MB-231
[23] = test system: MDA-MB-435
[24] = test system: NCI-H23
[25] = test system: U-251
[26] = test system: LOX IMVI
[27] = test system: A498
[28] = test system: ACHN
[29] = test system: SF-268
[30] = test system: SNB-19
[31] = test system: SK-OV-3
[32] = test system: PC-3
[33] = test system: UACC-257
[34] = test system: SR
[35] = test system: OVCAR-3
[36] = test system: HCT-116
[37] = test system: SW-620
[38] = test system: SNB-75
[39] = test system: T47D
[40] = test system: OVCAR-5
[41] = test system: OVCAR-8
[42] = test system: MCF7
[43] = test system: Malme-3M
[44] = test system: UO-31
[45] = test system: SN12C
[46] = test system: TK-10
[47] = test system: IGROV-1
[48] = test system: EKVX
[49] = test system: CAKI-1
[50] = test system: HT-29
[51] = test system: MDA-N
[52] = test system: HCC 2998
[53] = test system: COLO 205
[54] = test system: NCI/ADR-RES
[55] = test system: M14
[56] = test system: NCI-H226
[57] = test system: RPMI-8226
[58] = test system: HL-60

Compound: O=C(N/N=C1\C(=O)Nc2ccc(Br)cc21)/C(O)=C/C(=O)c1ccc(Cl)cc1
- GI50 [1]: 8.77 µM (inactive)
- GI50 [2]: 64.4 µM
- GI50 [3]: > 100 µM (inactive)
- GI50 [4]: 54 µM (inactive)
- GI50 [5]: 37.7 µM (inactive)
- GI50 [6]: > 100 µM (inactive)
- GI50 [7]: 57.5 µM (inactive)
- GI50 [8]: > 100 µM (inactive)
- GI50 [9]: 51.6 µM (inactive)
- GI50 [10]: > 100 µM (inactive)
- GI50 [11]: 70.5 nM (active)
- GI50 [12]: 44.3 µM (inactive)
- GI50 [13]: 31.3 µM (inactive)
- GI50 [14]: 71.3 µM (inactive)
- GI50 [15]: 54.6 µM (inactive)
- GI50 [16]: 18.7 µM (inactive)
- GI50 [17]: 23.1 µM (inactive)
- GI50 [18]: 35.5 µM (inactive)
- GI50 [19]: 30.2 µM (inactive)
- GI50 [20]: > 100 µM (inactive)
- GI50 [21]: 43.1 µM (inactive)
- GI50 [22]: 45.5 µM (inactive)
- GI50 [23]: 39.9 µM (inactive)
- GI50 [24]: 71.9 µM (inactive)
- GI50 [25]: 43.6 µM (inactive)
- GI50 [26]: 34 µM (inactive)
- GI50 [27]: 26.8 µM (inactive)
- GI50 [28]: > 100 µM (inactive)
- GI50 [29]: 36.4 µM (inactive)
- GI50 [30]: 50.4 µM (inactive)
- GI50 [31]: 64.1 µM (inactive)
- GI50 [32]: 77.1 µM (inactive)
- GI50 [33]: > 100 µM (inactive)
- GI50 [34]: < 10 nM (active)
- GI50 [35]: 22.4 µM (inactive)
- GI50 [36]: 47.1 µM (inactive)
- GI50 [37]: 40.8 µM (inactive)
- GI50 [38]: 43.8 µM (inactive)
- GI50 [39]: 36.6 µM (inactive)
- GI50 [40]: 97.5 µM (inactive)
- GI50 [41]: 89.3 µM (inactive)
- GI50 [42]: 44.4 µM (inactive)
- GI50 [43]: > 100 µM (inactive)
- GI50 [44]: > 100 µM (inactive)
- GI50 [45]: 67.8 µM (inactive)
- GI50 [46]: 50.4 µM (inactive)
- GI50 [47]: 75.9 µM (inactive)
- GI50 [48]: 45.8 µM (inactive)
- GI50 [49]: > 100 µM (inactive)
- GI50 [50]: > 100 µM (inactive)
- GI50 [51]: 39.3 µM (inactive)
- GI50 [52]: 50.5 µM (inactive)
- GI50 [53]: 86.5 µM (inactive)
- GI50 [54]: > 100 µM (inactive)
- GI50 [55]: > 100 µM (inactive)
- GI50 [56]: 75.2 µM (inactive)
- GI50 [57]: 19.4 µM (inactive)

Compound: COc1ccc(-n2c(C)nc3ccc(NC4OCC(O)C(O)C4O)cc3c2=O)cc1 (stereo not drawn)
- GI50 [1]: 31.3 µM (inactive) and 30.8 µM (inactive)
- GI50 [2]: 26.6 µM and 31.6 µM
- GI50 [3]: > 100 µM (inactive)
- GI50 [4]: > 100 µM (inactive)
- GI50 [5]: 34 µM (inactive) and 30.5 µM (inactive)
- GI50 [7]: > 100 µM (inactive)
- GI50 [8]: > 100 µM (inactive)
- GI50 [9]: 21.8 µM (inactive) and 32.1 µM (inactive)
- GI50 [11]: 22.3 µM (inactive) and 31.5 µM (inactive)
- GI50 [12]: 39.4 µM (inactive) and 31.9 µM (inactive)
- GI50 [13]: 22.7 µM (inactive) and 30.1 µM (inactive)
- GI50 [15]: > 100 µM (inactive)
- GI50 [16]: > 100 µM (inactive)
- GI50 [17]: 24.6 µM (inactive) and 22.3 µM (inactive)
- GI50 [18]: 74.5 µM (inactive)
- GI50 [19]: 51.8 µM (inactive) and 41.8 µM (inactive)
- GI50 [20]: 72.9 µM (inactive) and 40.5 µM (inactive)
- GI50 [22]: > 100 µM (inactive)
- GI50 [23]: > 100 µM (inactive) and 82.8 µM (inactive)
- GI50 [24]: 56.6 µM (inactive) and 38.3 µM (inactive)
- GI50 [25]: 60 µM (inactive) and 49.2 µM (inactive)
- GI50 [26]: 18.8 µM (inactive) and 22.5 µM (inactive)
- GI50 [27]: > 100 µM (inactive)
- GI50 [28]: 61.4 µM (inactive) and 36.6 µM (inactive)
- GI50 [29]: > 100 µM (inactive)
- GI50 [30]: > 100 µM (inactive)
- GI50 [32]: > 100 µM (inactive)
- GI50 [33]: > 100 µM (inactive)
- GI50 [34]: 31.1 µM (inactive) and 26.1 µM (inactive)
- GI50 [35]: > 100 µM (inactive)
- GI50 [36]: 18.6 µM (inactive) and 19.4 µM (inactive)
- GI50 [37]: 27.1 µM (inactive) and 36.5 µM (inactive)
- GI50 [38]: > 100 µM (inactive)
- GI50 [39]: > 100 µM (inactive)
- GI50 [40]: > 100 µM (inactive)
- GI50 [41]: 23.3 µM (inactive) and 28.6 µM (inactive)
- GI50 [42]: 43.5 µM (inactive) and 48.4 µM (inactive)
- GI50 [43]: 57.7 µM (inactive) and 99.3 µM (inactive)
- GI50 [44]: > 100 µM (inactive)
- GI50 [45]: 38.1 µM (inactive) and 27.2 µM (inactive)
- GI50 [46]: > 100 µM (inactive)
- GI50 [58]: 26.4 µM (inactive) and 28.9 µM (inactive)
- GI50 [47]: > 100 µM (inactive) and 55.1 µM (inactive)
- GI50 [48]: > 100 µM (inactive)
- GI50 [50]: 24 µM (inactive) and 25.6 µM (inactive)
- GI50 [51]: 61.9 µM (inactive) and 62.4 µM (inactive)
- GI50 [52]: > 100 µM (inactive)
- GI50 [53]: 42.6 µM (inactive) and 83 µM (inactive)
- GI50 [54]: 53.7 µM (inactive) and 83.6 µM (inactive)
- GI50 [56]: 37.3 µM (inactive) and 37.6 µM (inactive)
- GI50 [57]: 26.5 µM (inactive) and 20 µM (inactive)
